Literature values in US20020025310A1, “Compositions and methods for promoting healthy joints” (priority 2000, published 2002).

Tests used:
PARS = PARS (Homo sapiens, UniProt P09874); details: 100 mg/day supplementation, smokers with varying levels of cytogenic damage
[1] = COPD patients, 600 mg per day oral, compared to patients without NAC
[2] = 200 to 400 mg/day
[3] = test system: complex I, IV, and V in hepatic mitochondria; details: senescent mice, compared to controls without NAC supplementation
[4] = 800 mg orally, heavy aerobic exercise
isolated alveolar cells = details: animal studies

PARS, sequence (P09874 whole entry): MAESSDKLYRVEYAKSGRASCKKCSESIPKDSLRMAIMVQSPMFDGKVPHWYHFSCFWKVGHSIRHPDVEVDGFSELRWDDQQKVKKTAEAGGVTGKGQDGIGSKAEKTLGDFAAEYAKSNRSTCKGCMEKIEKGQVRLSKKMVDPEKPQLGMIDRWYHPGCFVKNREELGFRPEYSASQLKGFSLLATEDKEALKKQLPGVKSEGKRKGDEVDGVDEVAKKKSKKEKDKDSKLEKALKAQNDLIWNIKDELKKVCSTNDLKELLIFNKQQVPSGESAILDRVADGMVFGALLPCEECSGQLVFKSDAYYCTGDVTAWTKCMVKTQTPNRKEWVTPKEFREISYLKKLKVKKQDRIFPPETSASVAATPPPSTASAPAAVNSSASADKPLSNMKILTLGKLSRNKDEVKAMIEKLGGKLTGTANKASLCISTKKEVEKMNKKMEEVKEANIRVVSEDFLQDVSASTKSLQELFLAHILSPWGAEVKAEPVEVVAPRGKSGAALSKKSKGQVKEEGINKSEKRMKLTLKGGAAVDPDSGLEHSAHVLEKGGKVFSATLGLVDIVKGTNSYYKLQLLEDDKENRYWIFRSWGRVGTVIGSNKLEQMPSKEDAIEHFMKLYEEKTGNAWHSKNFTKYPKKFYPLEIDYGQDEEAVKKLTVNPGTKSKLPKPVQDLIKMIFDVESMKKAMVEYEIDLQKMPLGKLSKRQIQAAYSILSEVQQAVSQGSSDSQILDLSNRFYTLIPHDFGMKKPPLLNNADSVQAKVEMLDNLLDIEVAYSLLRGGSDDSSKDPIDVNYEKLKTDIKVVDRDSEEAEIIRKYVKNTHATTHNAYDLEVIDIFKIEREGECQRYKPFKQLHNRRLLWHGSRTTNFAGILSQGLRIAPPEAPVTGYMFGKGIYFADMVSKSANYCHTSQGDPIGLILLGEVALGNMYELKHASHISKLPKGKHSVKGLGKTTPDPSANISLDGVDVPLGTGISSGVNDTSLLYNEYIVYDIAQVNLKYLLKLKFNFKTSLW

Row | Structure (SMILES) | PARS activity (PARS) | bacterial-positive cultures [1] | clinical course [1] | use of bronchodilators [1] | individuals reporting side effects (400 to 6400 mg/m^2/day in divided doses) | significant side effects (400 to 6400 mg/m^2/day in divided doses, doubled each month) | dose exceeded before any difficulty was reported (individuals reporting side effects) [mg/m^2] | glutathione disulfide-to-reduced glutathione ratio [2] | intercellular glutathione levels [2] | specific activities of complex I, IV, and V in hepatic mitochondria [3] | exercise-associated damage in leukocyte DNA [4] | glutathione-to-glutathione disulfide ratio [4] | plasma lipid peroxide level [4] | intracellular ATP depletion after oxidant exposure (isolated alveolar cells)
1 | O=C(O)c1cccnc1 [nicotinic acid] | did not result in a significant reduction |  |  |  |  |  |  |  |  |  |  |  |  | 
2 | CC(=O)N[C@@H](CS)C(=O)O [NAC, N-acetylcysteine] |  | fewer bacterial-positive cultures | improved clinical course | reduced use of bronchodilators | 13 of 26 | bad taste and GI disturbances | > 800 | reduction | significant increase | significantly higher | less exercise-associated damage in leukocyte DNA | increased | lowered | helps protect
